From patent publication US11413360B2, “Dual mode radiotracer and—therapeutics” (priority 2017, dated 2022)
Like-named read-outs stand apart in the source and are kept apart here.

What was measured:
PSMA = target: T1, PSMA (Homo sapiens, UniProt Q04609); assay: Determination of PSMA affinity (IC50), competition with ([125I]I-BA)KuE on LNCaP cells; assay type: binding; details: ([125I]I-BA)KuE 0.2 nM, 1 h, 4° C., mean ± SD, read-out: IC50
T1 construct: endogenous in cells; host or cells: LNCaP cells
Procedure: After removal of the culture medium, the cells were treated once with 500 μL of HBSS (Hank's balanced salt solution, Biochrom, Berlin, Germany, with addition of 1% bovine serum albumin (BSA)) and left 15 min on ice for equilibration in 200 μL HBSS (1% BSA). […] Quantification of bound and free radioligand was accomplished in a γ-counter.

[1] = tested on: prostate cancer tumor lesions; assay: Human PET uptake in and detection of prostate cancer tumor lesions with 18F-labelled PSMA-SIFA3 (7); assay type: in vivo
Text: Gluteal muscle served as background.

[2] = in vivo
LNCaP cells = assay: Internalization of radiolabelled ligands into LNCaP cells; assay type: cell-based
Procedure: Subsequent to the removal of the culture medium, the cells were washed once with 500 μL DMEM-F12 (5% BSA) and left to equilibrate for at least 15 min at 37° C. in 200 μL DMEM-F12 (5% BSA). Each well was treated with either 25 μL of either DMEM-F12 (5% BSA) or a 100 μM PMPA solution for blockade. […] The experiment was terminated by placing the 24-well plate on ice for 3 min and consecutive removal of the medium. Each well was rinsed with 250 μL HBSS and the fractions from these first two steps combined, representing the amount of free radioligand. Removal of surface bound activity was accomplished by incubation of the cells with 250 μL of ice-cold PMPA (10 μM in PBS) solution for 5 min and rinsed again with another 250 μL of ice-cold PBS. The internalized activity was determined by incubation of the cells in 250 μL 1 M NaOH and the combination with the fraction of a subsequent wash step with 250 μL 1.0 M NaOH. Each experiment (control and blockade) was performed in triplicate. Free, surface bound and internalized activity was quantified in a γ-counter. […] Data were corrected for non-specific internalization and normalized to the specific-internalization observed for the radioiodinated reference compound.

Human Serum Albumin = Human Serum Albumin (Homo sapiens, UniProt P02768); assay: HSA binding on Chiralpak HSA column; assay type: in vitro ADME
Procedure: The mobile phase (A: NH4OAc, 50 mM in water, pH 7 and B: isopropanol) was freshly prepared for each experiment and only used for one day. The column was kept at room temperature and each run was stopped after detection of the signal to reduce the acquisition time. All substances were dissolved in a 0.5 mg/ml concentration in 50% 2-propanol and 50% 50 mM pH 6.9 ammonium acetate buffer. […] All nine reference substances (see Table 1) were injected consecutively to establish a non-linear regression with OriginPro 2016G; see FIG. 1.

[3] = tested on: recurrent prostate cancer; assay: PET/MR with 68Ga-labelled PSMA-SIFA3 (7) in one subject; assay type: in vivo, human; details: 144 MBq, PET/MR 66 min after injection, one subject with biochemical recurrence
Procedure: As a proof on concept investigation of a ^68Ga-labelled SiFA substituted chelator-based PET tracers one subject with biochemical recurrence after radical prostatectomy (PSA 0.44 ng/ml, pT2c, pNO, Gleason 7b) underwent PET/MR 66 min after injection of 144 MBq ^68Ga-labelled PSMA-SIFA3 (7).

[4] = Octanol-water partition coefficient (log D) of radiolabelled ligands; assay type: physicochemical; details: n-octanol/PBS, n = 6
Procedure: Approximately 1 MBq of the labelled tracer was dissolved in 1 mL of a 1:1 mixture (by volumes) of phosphate buffered saline (PBS, pH 7.4) and n-octanol in an Eppendorf tube. After vigorous mixing of the suspension for 3 minutes at room temperature, the vial was centrifuged at 15000 g for 3 minutes (Biofuge 15, Heraus Sepatech, Osterode, Germany) and 100 μL aliquots of both layers were measured in a gamma counter. The experiment was repeated at least six times.

[5] = 18F-labelled, of 72 lesions analysed
[6] = 35 lesions with no correlate or small size on morphological imaging, 18F-labelled, human PET
[7] = bone metastases (n=21), 18F-labelled, human PET
[8] = local tumor (n=24), 18F-labelled, human PET
[9] = lymph node metastases (n=23), 18F-labelled, human PET
[10] = tumor lesions, 18F-labelled, human PET, n = 72
[11] = visceral metastases (n=4), 18F-labelled, human PET

T1 sequence (Q04609 whole entry): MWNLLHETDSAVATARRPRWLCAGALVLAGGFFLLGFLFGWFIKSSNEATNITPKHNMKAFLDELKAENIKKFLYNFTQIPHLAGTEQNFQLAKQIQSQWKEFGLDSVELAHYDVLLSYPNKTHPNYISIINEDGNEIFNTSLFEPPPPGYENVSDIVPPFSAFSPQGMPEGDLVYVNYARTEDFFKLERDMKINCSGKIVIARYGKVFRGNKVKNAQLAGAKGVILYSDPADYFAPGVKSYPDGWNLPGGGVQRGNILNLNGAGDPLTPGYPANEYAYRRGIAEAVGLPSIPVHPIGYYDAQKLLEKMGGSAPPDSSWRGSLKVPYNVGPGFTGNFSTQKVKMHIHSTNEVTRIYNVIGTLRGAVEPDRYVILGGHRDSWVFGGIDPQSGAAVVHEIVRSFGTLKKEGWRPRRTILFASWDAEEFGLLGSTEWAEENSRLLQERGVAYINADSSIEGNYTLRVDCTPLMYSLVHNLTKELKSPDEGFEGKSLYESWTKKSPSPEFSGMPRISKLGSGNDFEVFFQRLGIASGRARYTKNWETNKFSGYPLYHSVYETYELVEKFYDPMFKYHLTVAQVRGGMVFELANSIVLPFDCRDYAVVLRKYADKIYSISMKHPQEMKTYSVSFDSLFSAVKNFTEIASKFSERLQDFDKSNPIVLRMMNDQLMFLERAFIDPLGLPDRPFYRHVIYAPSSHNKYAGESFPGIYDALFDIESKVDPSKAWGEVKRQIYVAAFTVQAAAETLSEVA
Sequence of Human Serum Albumin (P02768 25-609): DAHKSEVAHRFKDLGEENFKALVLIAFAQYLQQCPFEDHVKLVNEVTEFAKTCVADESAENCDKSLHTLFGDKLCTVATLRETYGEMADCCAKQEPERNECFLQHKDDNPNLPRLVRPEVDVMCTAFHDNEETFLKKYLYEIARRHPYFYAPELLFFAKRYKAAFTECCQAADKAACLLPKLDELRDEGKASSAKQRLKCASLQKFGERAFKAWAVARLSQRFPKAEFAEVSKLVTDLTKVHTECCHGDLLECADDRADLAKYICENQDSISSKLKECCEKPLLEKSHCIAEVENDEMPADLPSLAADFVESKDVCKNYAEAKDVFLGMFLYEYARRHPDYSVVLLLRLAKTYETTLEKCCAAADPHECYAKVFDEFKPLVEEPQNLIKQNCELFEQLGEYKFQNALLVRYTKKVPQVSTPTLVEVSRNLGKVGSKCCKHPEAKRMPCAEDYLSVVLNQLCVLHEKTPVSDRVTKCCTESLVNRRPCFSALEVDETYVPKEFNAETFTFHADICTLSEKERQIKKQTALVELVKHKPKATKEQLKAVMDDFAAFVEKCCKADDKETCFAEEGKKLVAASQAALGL

## CC(C)(C)[Si](F)(c1ccc(C(=O)NC[C@@H](NC(=O)CCC(C(=O)O)N2CCN(CC(=O)O)CCN(CC(=O)O)CCN(CC(=O)O)CC2)C(=O)N[C@H](CCCCNC(=O)CCC(=O)NCCC[C@@H](NC(=O)CC[C@H](NC(=O)N[C@@H](CCC(=O)O)C(=O)O)C(=O)O)C(=O)O)C(=O)O)cc1)C(C)(C)C (some centres unmarked) [ligand 7, PSMA-SIFA3]
PSMA; natF-L (uncomplexed)
  IC50: 3.5 ± 0.2 nM
PSMA; natGa-natF-L
  IC50: 3 ± 0.7 nM
PSMA; natLu-natF-L
  IC50: 3.9 ± 0.5 nM
[1]
  SUVmax max: 25
  SUVmean max: 28.3
  ratio SUVmax to background max: 43.8
  ratio SUVmean to background max: 56.6
[1]; 18F-labelled, 53 subjects imaged (primary staging n=6, recurrent disease n=47)
  patients in whom lesions indicative for prostate cancer were detected: 39 patients
[1]; [5]
  lesions with no correlate on morphological imaging: 21 lesions
  lesions with size of equal or less than 5 mm on morphological imaging: 14 lesions
[1]; 18F-labelled, single patients, FIG. 26 and FIG. 27
  uptake in prostate cancer lesions (individual patient images): high uptake
[1]; [6]
  SUVmax mean: 16.7
  SUVmax min: 9.2
  SUVmean mean: 13.3
  SUVmean min: 6.4
  ratio SUVmax to background mean: 18.3
  ratio SUVmax to background min: 5.8
  ratio SUVmean to background mean: 22.9
  ratio SUVmean to background min: 7.1
[1]; [7]
  SUVmax max: 95.4
  SUVmax mean: 31.2
  SUVmax min: 7.9
  SUVmean max: 71.7
  SUVmean mean: 22.2
  SUVmean min: 5.3
  ratio SUVmax to background max: 73.4
  ratio SUVmax to background mean: 32.8
  ratio SUVmax to background min: 7.9
  ratio SUVmean to background max: 80
  ratio SUVmean to background mean: 36.6
  ratio SUVmean to background min: 8.8
[1]; [8]
  SUVmax max: 75.1
  SUVmax mean: 26.9
  SUVmax min: 4
  SUVmean max: 19.3
  SUVmean mean: 19.3
  SUVmean min: 2.7
  ratio SUVmax to background max: 83.4
  ratio SUVmax to background mean: 29.6
  ratio SUVmax to background min: 5
  ratio SUVmean to background max: 83.2
  ratio SUVmean to background mean: 32.4
  ratio SUVmean to background min: 5.4
[1]; [9]
  SUVmax max: 67.5
  SUVmax mean: 22.2
  SUVmax min: 8.1
  SUVmean max: 44.6
  SUVmean mean: 16.6
  SUVmean min: 6.4
  ratio SUVmax to background max: 63.6
  ratio SUVmax to background mean: 23.7
  ratio SUVmax to background min: 5.8
  ratio SUVmean to background max: 70.7
  ratio SUVmean to background mean: 27.3
  ratio SUVmean to background min: 7.1
[1]; [10]
  SUVmax max: 95.4
  SUVmax mean: 26.6
  SUVmax min: 4.0
  SUVmean max: 71.7
  SUVmean mean: 19.2
  SUVmean min: 2.7
  ratio SUVmax to background max: 83.4
  ratio SUVmax to background mean: 28.6
  ratio SUVmax to background min: 5.0
  ratio SUVmean to background max: 83.2
  ratio SUVmean to background mean: 31.9
  ratio SUVmean to background min: 5.4
[1]; [11]
  SUVmax max: 32.5
  SUVmax mean: 26.1
  SUVmax min: 20.4
  SUVmean max: 19.1
  SUVmean mean: 17.4
  SUVmean min: 15.5
  ratio SUVmax to background max: 40.6
  ratio SUVmax to background mean: 28.9
  ratio SUVmax to background min: 18.5
  ratio SUVmean to background max: 38.2
  ratio SUVmean to background mean: 30.2
  ratio SUVmean to background min: 22.1
[2]
  adverse events / clinically detectable pharmacological effects: No adverse events or clinically detectable pharmacological effects were noted
LNCaP cells; 18F-L, 0.5 nM, 1 hour, 37° C., % of reference ligand ([125I]I-BA)KuE, mean ± SD
  Internalization: 164.8 ± 4.5%
LNCaP cells; 177Lu-natF-L, 0.5 nM, 1 hour, 37° C., % of reference ligand ([125I]I-BA)KuE, mean ± SD
  Internalization: 185.8 ± 4.5%
LNCaP cells; 1 h, 0.0005 µM
  Internalization: 126.0 ± 13.1%
Human Serum Albumin; natGa-natF-L
  HSA binding: 95.7%
Human Serum Albumin; natLu-natF-L
  HSA binding: 97.7%
[3]
  uptake in lesion (proof of concept): Uptake typical for recurrent prostate cancer is demonstrated in a 2 mm lymph node
[4]; pH 7.4, 18F-L
  logD: -1.98 ± 0.04
[4]; pH 7.4, 68Ga-natF-L
  logD: -3.18 ± 0.05
[4]; pH 7.4, 177Lu-natF-L
  logD: -4.2 ± 0.09
